Data: patent US9763957B2, “Autotaxin inhibitors” (Novartis AG, priority 2013, dated 2017)

biological target: Recombinant human ATX (Homo sapiens (Human), UniProt Q13822); experiment: ATX inhibition assay (choline release, Amplex Red fluorescence); type: biochemical; conditions: ATX 10 nM, LPC 18:1 10 μM, 37° C., 20 min pre-incubation; mean of n≧2
Protocol: Reagents—LPC (oleoyl (18:1)) was purchased from Avanti Polar Lipids (Alabaster, Ala.) and solubilized in methanol to 20 mM. Amplex Red was obtained from Invitrogen Life Technologies (Paisley, UK) and dissolved in DMSO to 10 mM. Choline oxidase and horseradish peroxidase (HRP) were obtained from Sigma Aldrich (Dorset, UK) and dissolved in HBSS to 20 U/ml and 200 U/ml respectively. All reagents were stored at −20° C. in single use aliquots. All experimental measurements were performed in assay buffer made up immediately prior to use (HBSS, 0.01% BSA essentially fatty acid free).
PerkinElmer EnVision (Fluorescence Intensity/Absorbance Monochromator) or Tecan Infinite 200 PRO series plate reader was used to detect change in fluorescent intensity.
Assessing ATX inhibition—ATX activity was determined by measurement of released choline in reactions containing ATX (10 nM), choline oxidase (0.1 U/ml), HRP (100 U/ml), amplex red (50 μM) and LPC 18:1 (10 μM). Compounds of the invention were prepared as 10 point serial dilutions from 1 μM in duplicate and pre-incubated with ATX at 37° C. for 20 minutes prior to the addition of remaining reagents. The liberated choline was measured from changes in fluorescence intensity (λex 530 nm, λem 590 nm) of the product resurofin at 37° C. every 2 minutes over a 40-minute period. ATX activity was measured as a slope of the linear portion of the progress curve, typically between 14 to 24 minutes.
Data analysis—Slope data was exported to Graphpad prism (Graphpad software, San Diego, Calif.) where data was fitted to equation 1. Y=Bottom+(Top-Bottom)/(1+10^((Log IC50−X)*HillSlope)) Equation 1: […]

Compound	IC50 [nM]
Cc1nnn(Cc2cc(Cl)ccc2/C=C/C(=O)N2CCC(O)(Cn3cc(C(=O)O)cn3)CC2)n1 [Example 35, (E)-1-((1-(3-(4-Chloro-2-((5-methyl-2H-tetrazol-2-yl)methyl)phenyl)acryloyl)-4-hydroxypiperidin-4-yl)methyl)-1H-pyrazole-4-carboxylic acid]	924
Cc1nnn(Cc2cc(C(F)(F)F)ccc2OCC(=O)N2CCC(c3noc(C)n3)CC2)n1 [Example 36, 1-(4-(5-Methyl-1,2,4-oxadiazol-3-yl)piperidin-1-yl)-2-(2-((5-methyl-2H-tetrazol-2-yl)methyl)-4-(trifluoromethyl)phenoxy)ethanone]	171
Cc1ncn(C2CCN(C(=O)/C=C/c3ccc(C(F)(F)F)cc3Cn3nnc(C)n3)CC2)n1 [Example 37, (E)-1-(4-(3-Methyl-1H-1,2,4-triazol-1-yl)piperidin-1-yl)-3-(2-((5-methyl-2H-tetrazol-2-yl)methyl)-4-(trifluoromethyl)phenyl)prop-2-en-1-one]	17
C/C(=C\C(=O)N1CCC(c2nnc(C)o2)CC1)c1ccc(Cl)cc1Cn1nnc(C)n1 [Example 39, (E)-3-(4-Chloro-2-((5-methyl-2H-tetrazol-2-yl)methyl)phenyl)-1-(4-(5-methyl-1,3,4-oxadiazol-2-yl)piperidin-1-yl)but-2-en-1-one]	75
Cc1nnn(Cc2cc(C(F)(F)F)ccc2CCC(=O)N2CCC(c3nnc(C)o3)CC2)n1 [Example 40, 1-(4-(5-Methyl-1,3,4-oxadiazol-2-yl)piperidin-1-yl)-3-(2-((5-methyl-2H-tetrazol-2-yl)methyl)-4-(trifluoromethyl)phenyl)propan-1-one]	42
Cc1nnn(Cc2cc(F)ccc2/C=C/C(=O)N2CCC(Cc3nnc(C)o3)CC2)n1 [Example 41, (E)-3-(4-Fluoro-2-((5-methyl-2H-tetrazol-2-yl)methyl)phenyl)-1-(4-((5-methyl-1,3,4-oxadiazol-2-yl)methyl)piperidin-1-yl)prop-2-en-1-one]	654
Cc1nnn(Cc2cc(F)c(F)cc2/C=C/C(=O)N2CCC(Cc3nnc(C)o3)CC2)n1 [Example 42, (E)-3-(4,5-Difluoro-2-((5-methyl-2H-tetrazol-2-yl)methyl)phenyl)-1-(4-((5-methyl-1,3,4-oxadiazol-2-yl)methyl)piperidin-1-yl)prop-2-en-1-one]	436
Cc1nnn(Cc2ccc(Cl)cc2/C=C/C(=O)N2CCC(Cc3nnc(C)o3)CC2)n1 [Example 43, (E)-3-(5-Chloro-2-((5-methyl-2H-tetrazol-2-yl)methyl)phenyl)-1-(4-((5-methyl-1,3,4-oxadiazol-2-yl)methyl)piperidin-1-yl)prop-2-en-1-one]	2370
Cc1nnn(Cc2cccc(F)c2/C=C/C(=O)N2CCC(Cc3nnc(C)o3)CC2)n1 [Example 44, (E)-3-(2-Fluoro-6-((5-methyl-2H-tetrazol-2-yl)methyl)phenyl)-1-(4-((5-methyl-1,3,4-oxadiazol-2-yl)methyl)piperidin-1-yl)prop-2-en-1-one]	535
Cc1cnc(Cc2cc(Cl)ccc2/C=C/C(=O)N2CCC(Cc3nnc(C)o3)CC2)o1 [Example 45, (E)-3-(4-Chloro-2-((5-methyloxazol-2-yl)methyl)phenyl)-1-(4-((5-methyl-1,3,4-oxadiazol-2-yl)methyl)piperidin-1-yl)prop-2-en-1-one]	644
Cc1nnn(Cc2cccc(Cl)c2/C=C/C(=O)N2CCC(Cc3nnc(C)o3)CC2)n1 [Example 46, (E)-3-(2-Chloro-6-((5-methyl-2H-tetrazol-2-yl)methyl)phenyl)-1-(4-((5-methyl-1,3,4-oxadiazol-2-yl)methyl)piperidin-1-yl)prop-2-en-1-one]	204
Cc1nnn(Cc2cc(Cl)ccc2COC(=O)N2CCC(c3nnc(C)o3)CC2)n1 [Example 47, 4-Chloro-2-((5-methyl-2H-tetrazol-2-yl)methyl)benzyl 4-(5-methyl-1,3,4-oxadiazol-2-yl)piperidine-1-carboxylate]	442
Cc1nnn(Cc2cc(Cl)ccc2COC(=O)N2CCC(c3ncc(C)o3)CC2)n1 [Example 48, 4-Chloro-2-((5-methyl-2H-tetrazol-2-yl)methyl)benzyl 4-(5-methyloxazol-2-yl)piperidine-1-carboxylate]	70
Cc1nnn(Cc2cc(Cl)ccc2/C=C/C(=O)N2CCN(c3ncccn3)CC2)n1 [Example 49.1, (E)-3-(4-Chloro-2-((5-methyl-2H-tetrazol-2-yl)methyl)phenyl)-1-(4-(pyrimidin-2-yl)piperazin-1-yl)prop-2-en-1-one]	20
Cc1nnn(Cc2cc(Cl)ccc2/C=C/C(=O)N2CC(S(C)(=O)=O)C2)n1 [Example 49.2, (E)-3-(4-Chloro-2-((5-methyl-2H-tetrazol-2-yl)methyl)phenyl)-1-(3-(methylsulfonyl)azetidin-1-yl)prop-2-en-1-one]	477
Cc1nnn(Cc2cc(Cl)ccc2/C=C/C(=O)N2CCC(N3CCNC3=O)CC2)n1 [Example 49.3, (E)-1-(1-(3-(4-Chloro-2-((5-methyl-2H-tetrazol-2-yl)methyl)phenyl)acryloyl)piperidin-4-yl)imidazolidin-2-one]	129
Cc1nnn(Cc2cc(Cl)ccc2/C=C/C(=O)N2CCC(F)C2)n1 (centres unmarked) [Example 49.5, (E)-3-(4-Chloro-2-((5-methyl-2H-tetrazol-2-yl)methyl)phenyl)-1-(3-fluoropyrrolidin-1-yl)prop-2-en-1-one]	320
Cc1nnn(Cc2cc(Cl)ccc2/C=C/C(=O)N2CCC(CCO)CC2)n1 [Example 49.6, (E)-3-(4-Chloro-2-((5-methyl-2H-tetrazol-2-yl)methyl)phenyl)-1-(4-(2-hydroxyethyl)piperidin-1-yl)prop-2-en-1-one]	110
Cc1nnn(Cc2cc(Cl)ccc2/C=C/C(=O)N2CCCC(O)C2)n1 (centres unmarked) [Example 49.7, (E)-3-(4-Chloro-2-((5-methyl-2H-tetrazol-2-yl)methyl)phenyl)-1-(3-hydroxypiperidin-1-yl)prop-2-en-1-one]	151
Cc1nnn(Cc2cc(Cl)ccc2/C=C/C(=O)N2CCCC(C(N)=O)C2)n1 (centres unmarked) [Example 49.8, (E)-1-(3-(4-Chloro-2-((5-methyl-2H-tetrazol-2-yl)methyl)phenyl)acryloyl)piperidine-3-carboxamide]	354
CCOC(=O)C1CCN(C(=O)/C=C/c2ccc(Cl)cc2Cn2nnc(C)n2)CC1 [Example 49.9, (E)-ethyl 1-(3-(4-Chloro-2-((5-methyl-2H-tetrazol-2-yl)methyl)phenyl)acryloyl)piperidine-4-carboxylate]	5.9
Cc1nnn(Cc2cc(Cl)ccc2/C=C/C(=O)N2CCC(OCC(=O)N3CCCCC3)CC2)n1 [Example 49.10, (E)-3-(4-Chloro-2-((5-methyl-2H-tetrazol-2-yl)methyl)phenyl)-1-(4-(2-oxo-2-(piperidin-1-yl)ethoxy)piperidin-1-yl)prop-2-en-1-one]	24
Cc1nnn(Cc2cc(Cl)ccc2/C=C/C(=O)N2CCC(Cn3cccn3)CC2)n1 [Example 49.11, (E)-1-(4-((1H-Pyrazol-1-yl)methyl)piperidin-1-yl)-3-(4-chloro-2-((5-methyl-2H-tetrazol-2-yl)methyl)phenyl)prop-2-en-1-one]	14
Cc1nnn(Cc2cc(Cl)ccc2/C=C/C(=O)N2CCC(C(F)(F)F)CC2)n1 [Example 49.12, (E)-3-(4-Chloro-2-((5-methyl-2H-tetrazol-2-yl)methyl)phenyl)-1-(4-(trifluoromethyl)piperidin-1-yl)prop-2-en-1-one]	49
Cc1nnn(Cc2cc(Cl)ccc2/C=C/C(=O)N2CCC(Oc3ccccc3C(=O)N(C)C)CC2)n1 [Example 49.13, (E)-2-((1-(3-(4-Chloro-2-((5-methyl-2H-tetrazol-2-yl)methyl)phenyl)acryloyl)piperidin-4-yl)oxy)-N,N-dimethyl benzamide]	17
Cc1nnn(Cc2cc(Cl)ccc2/C=C/C(=O)N2CCCC[C@H]2C)n1 [Example 49.14, (R,E)-3-(4-Chloro-2-((5-methyl-2H-tetrazol-2-yl)methyl)phenyl)-1-(2-methylpiperidin-1-yl)prop-2-en-1-one]	85
CC(=O)C1CCCN(C(=O)/C=C/c2ccc(Cl)cc2Cn2nnc(C)n2)C1 (centres unmarked) [Example 49.15, (E)-1-(3-Acetylpiperidin-1-yl)-3-(4-chloro-2-((5-methyl-2H-tetrazol-2-yl)methyl)phenyl)prop-2-en-1-one]	127
Cc1nnn(Cc2cc(Cl)ccc2/C=C/C(=O)N2CCCC(c3nncn3C)C2)n1 (centres unmarked) [Example 49.16, (E)-3-(4-Chloro-2-((5-methyl-2H-tetrazol-2-yl)methyl)phenyl)-1-(3-(4-methyl-4H-1,2,4-triazol-3-yl)piperidin-1-yl)prop-2-en-1-one]	1060
COCC1CCCN(C(=O)/C=C/c2ccc(Cl)cc2Cn2nnc(C)n2)C1 (centres unmarked) [Example 49.17, (E)-3-(4-Chloro-2-((5-methyl-2H-tetrazol-2-yl)methyl)phenyl)-1-(3-(methoxymethyl)piperidin-1-yl)prop-2-en-1-one]	222
